Data taken from patent US20210068388A1, “A MULTIPURPOSE POTENTIATOR COMPOSITION AND THE METHODS THEREOF” (priority 2017, published 2021).
Read-outs that look alike come from different tables or passages of the source.

Columns and labels:
[1] = test system: African green monkey kidney cells (Vero cells); assay: In-vitro cytotoxicity on Vero cells
Experimental: (§1) In-vitro cytotoxicity of the composition of was carried out on African green monkey kidney cells (Vero cells).

[2] = test system: African green monkey kidney cells (Vero cells)
Experimental: as §1

Row | SMILES | toxic level [1] [%] | Non-toxic level (%) ([1]; up to total amount of the composition) | Non-toxic level (%) [2] [%] | toxic level [2] [%]
1 | [Cl-].[Na+] [Control-I, Sodium chloride] | 0.50 | 0.50 |  | 
2 | [Na+].[OH-] [Control-II, Sodium hydroxide] |  |  | 0.06 | 0.06
